In patent publication US10973810B2, “Methods for the treatment of neurological disorders” (Yumanity Therapeutics, Inc., priority 2017, dated 2021):

Key:
Assay type in all cases: cell-based
[1] = tested on: A53T α-synuclein transfected human iPSC-derived neurons; assay: Neuron survival, A53T α-synuclein transfected human iPSC-derived neurons; conditions: all tested concentrations (3 μM to 0.3 μM); relative to DMSO controls
Experimental: FIG. 16 is a graph illustrating that non-selective SCD reference inhibitor, CAY10566, reduces risk of death in A53T α-synuclein transfected human iPSC-derived neurons. Human iPSC-derived neurons were co-transfected with a fluorescence reporter plasmid encoding RFP (morphology tracer) and control plasmid (empty) or plasmid containing α-synuclein-A53T mutation (syn-A53T). Neuron groups as indicated were treated with either DMSO or CAY10566 at the indicated doses. The lifetimes of single neurons were tracked over time based on either loss of RFP fluorescence signal or morphological indicators of neuron death such as loss of neurites or cell blebbing. […] Cox proportional hazard analysis was used to estimate relative risk of death, or hazard ratio (HR) and the P value was determined by the logrank test. […]
FIG. 17 is a graph illustrating that an SCD5-selective inhibitor reduces risk of death in A53T α-synuclein transfected human iPSC-derived neurons. Human iPSC-derived neurons were co-transfected with a fluorescence reporter plasmid encoding RFP (morphology tracer) and control plasmid (empty) or plasmid containing α-synuclein-A53T mutation (syn-A53T). […] The lifetimes of single neurons were tracked over time based on either loss of RFP fluorescence signal or morphological indicators of neuron death such as loss of neurites or cell blebbing. […]

human SCD5 = biological target: T1, human SCD5 (Homo sapiens, UniProt Q86SK9); assay: Growth of humanized yeast surviving solely on human SCD5; conditions: growth inhibition
T1 construct: host or cells: S. cerevisiae ole1Δ strain (W303 pdr1Δ pdr3Δ background), plasmid pRS316 with TDH3 promoter and CYC1 terminator
T1 sequence (Q86SK9 1-330): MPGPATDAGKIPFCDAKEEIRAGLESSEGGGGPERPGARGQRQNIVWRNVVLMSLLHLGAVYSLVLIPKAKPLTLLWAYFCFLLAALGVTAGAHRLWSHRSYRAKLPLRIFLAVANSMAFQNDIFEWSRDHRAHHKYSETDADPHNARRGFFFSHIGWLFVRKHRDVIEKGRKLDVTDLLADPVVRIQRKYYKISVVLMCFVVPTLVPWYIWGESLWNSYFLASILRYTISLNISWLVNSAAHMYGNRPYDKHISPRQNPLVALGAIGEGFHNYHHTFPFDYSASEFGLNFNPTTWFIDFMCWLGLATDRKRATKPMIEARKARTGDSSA
Source text: (§1) To generate yeast strains expressing SCD1 or SCD5 as the sole desaturase, the human SCD1 and SCD5 genes were cloned from cDNAs (Harvard PlasmID database Clone ID HsCD00340237 for SCD1 and HsCD00342695 for SCD5) into yeast plasmid pRS316 (ATCC 77145) between the yeast TDH3 promoter and the CYC1 terminator. The coding sequence of yeast OLE1 was also cloned into this plasmid). These clones were then transformed into the ole1d strain and plated on CSM-Ura media (CSM lacking uracil) with 2% glucose (w/v) and independent colonies were isolated and amplified.
(§2) For experiments using a plasmid-borne copy of Ole1, SCD1, or SCD5 (FIGS. 3B, 6, and 7), media lacking uracil (SX-Ura, where X is glucose, raffinose, or galactose), was used for all steps of the compound profiling protocol to ensure its maintenance throughout the assay.
(§3) After yeast delivery, assay plates were incubated under humidified conditions at 30° C. for 24 to 40 h. ApoE4 rescue experiments were stopped at 24 h, aSyn experiments at 40 h, Ole1 at 24 h, and SCD1/SCD5 at 40 h. The growth of yeast was monitored by reading the OD600 of each well using a microplate reader (Perkin Elmer EnVision™). For model rescue experiments, raw data were processed by background subtracting and calculating a fold-change relative to DMSO control [(EXP-0.035)/(DMSO-0.035)—where 0.035 is the OD600 contributed by an empty well containing 30 μL of media alone]. For growth inhibition of wild-type cells, raw data were processed by background subtracting and converting values to a percent of the nontreated condition for that strain [(EXP-0.035)/(DMSO-0.035)×100%].

yeast OLE1 = biological target: T2, yeast OLE1 (Saccharomyces cerevisiae, UniProt P21147, L450T/T449L); assay: Growth of yeast surviving solely on yeast OLE1; conditions: 24 h
T2 construct: expressed in transfected cells; host or cells: S. cerevisiae ole1Δ strain (W303 pdr1Δ pdr3Δ background), plasmid pRS316 with TDH3 promoter and CYC1 terminator
Source text: as §1, §2, §3

T2 sequence (P21147 whole entry T449L/L450T): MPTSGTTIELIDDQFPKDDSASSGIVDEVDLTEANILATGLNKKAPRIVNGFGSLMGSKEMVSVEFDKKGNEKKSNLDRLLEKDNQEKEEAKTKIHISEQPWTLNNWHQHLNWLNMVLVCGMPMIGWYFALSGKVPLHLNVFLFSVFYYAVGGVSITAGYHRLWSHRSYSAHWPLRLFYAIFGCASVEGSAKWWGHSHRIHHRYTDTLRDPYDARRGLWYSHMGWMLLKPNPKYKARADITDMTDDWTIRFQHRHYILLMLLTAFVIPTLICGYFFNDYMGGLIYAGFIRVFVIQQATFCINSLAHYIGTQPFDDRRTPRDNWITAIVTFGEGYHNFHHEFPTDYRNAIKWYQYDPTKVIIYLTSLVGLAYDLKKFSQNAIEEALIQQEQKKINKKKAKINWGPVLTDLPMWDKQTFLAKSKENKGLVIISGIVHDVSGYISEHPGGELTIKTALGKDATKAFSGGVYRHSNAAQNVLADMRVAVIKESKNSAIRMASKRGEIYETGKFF

## Cc1nnc(-c2ccc(N3CCC(Oc4cc(F)ccc4Cl)CC3)nn2)o1 [CAY10566]
[1]
  risk of neuron death: significantly reduced
Human SCD5
  half-maximal inhibitory concentration (IC50), SCD5 humanized strain: low nanomolar
Yeast OLE1
  growth of yeast strain expressing Ole1 (percent of DMSO-treated condition): resistant
